Source: patent publication US9120787B2, “HIV replication inhibitors” (priority 2011, dated 2015)

Legend:
[1] = Cytotoxicity by MTS staining in uninfected MAGI-CCR5 cells; type: cell-based; details: human, read-out: TC50
Method: The anti-viral activity of dihydropyrimidines was shown by inhibition of virus replication in MAGI-CCR5 cells. MAGI-CCR5 cells are derived from HeLa-CD4-LTR-β-galactosidase cells. The cells have been engineered to express high levels of CD4 and CCR5 and contain one copy of the HIV-1 LTR promoter driving expression of the β-galactosidase gene upon HIV-1 Tat transactivation. On the day preceding the assay, the cells were plated at 1.0×10^4 cells per well and maintained at 37° C. and 5% CO2 in a humidified incubator. Total cell count and viability was visually assessed using a hemacytometer and trypan blue exclusion. Compounds were evaluated at six concentrations (triplicate wells/concentration). On the day of assay setup, compound dilutions were prepared at two-times (2×) the final concentrations. Media was decanted and wells were replenished with 50 μl of 2× compounds, followed by the addition of 50 μl of diluted virus. Identical uninfected assays were prepared for parallel cytotoxicity testing.

HIV-1Ba-L [2] = assay: Inhibition of virus replication in MAGI-CCR5 cells (β-galactosidase reporter); type: cell-based; details: HIV-1Ba-L in MAGI-CCR5 cells; for IC50: 48 hours, β-galactosidase reporter expression, read-out: IC50
Method: The anti-viral activity of dihydropyrimidines was shown by inhibition of virus replication in MAGI-CCR5 cells. MAGI-CCR5 cells are derived from HeLa-CD4-LTR-β-galactosidase cells. The cells have been engineered to express high levels of CD4 and CCR5 and contain one copy of the HIV-1 LTR promoter driving expression of the β-galactosidase gene upon HIV-1 Tat transactivation. On the day preceding the assay, the cells were plated at 1.0×10^4 cells per well and maintained at 37° C. and 5% CO2 in a humidified incubator. Total cell count and viability was visually assessed using a hemacytometer and trypan blue exclusion.
Compounds were evaluated at six concentrations (triplicate wells/concentration). On the day of assay setup, compound dilutions were prepared at two-times (2×) the final concentrations. Media was decanted and wells were replenished with 50 μl of 2× compounds, followed by the addition of 50 μl of diluted virus. Identical uninfected assays were prepared for parallel cytotoxicity testing.
Evaluation of Dihydropyrimidines vs. HIV-1Ba-L in MAGI-CCR5 Cells

HIV-1Ba-L [3] = assay: HIV-1Ba-L replication in PBMCs (supernatant RT end-point); details: HIV-1Ba-L in PBMCs, seven days, RT end-point
Method: Evaluation of Dihydropyrimidines vs. HIV-1Ba-L in Peripheral Blood Mononuclear Cells (PBMCs)
Cultures of pooled phytohemagglutinin stimulated peripheral blood mononuclear cells (PBMC) were seeded into a 96-well plate at plating density of 5×10^4 cells/well. Compounds were serially diluted into media in ½-log increments using a high test of […] and […] of each concentration (nine total concentrations). Cells were infected with HIV strains HIV-1Ba-L and NL4-3 at an MOI=0.1. The PBMCs were cultured for seven days in an humidified incubator maintained at 37° C., 5% CO2 atmosphere. At the assay end-point, the supernatant was collected and analyzed for reverse transcriptase activity. For the RT assay, tritiated thymidine triphosphate (3H-TTP, 80 Ci/mmol) was diluted 1:1 dH2O:Ethanol at 1 mCi/ml. Poly rA:oligo dT template:primer was prepared as a stock solution by combining 150 μl poly rA (20 mg/ml) with 0.5 mL oligo dT (20 units/ml) and 5.35 ml sterile dH2O followed by aliquoting (1.0 ml) and storage at −20° C. The RT reaction buffer contained of 125 ml 1.0 M EGTA, 125 ml dH2O, 125 ml 20% Triton X100, 50 ml 1.0 M Tris (pH 7.4), 50 ml 1.0 M DTT, and 40 ml 1.0 M MgCl2. The final reaction mixture was prepared by combining 1 part 3H-TTP, 4 parts dH2O, 2.5 parts poly rA:oligo dT stock and 2.5 parts reaction buffer. To each well, ten microliters of the reaction mixture and 15 μl of virus containing supernatant were added. The plates were incubated at 37° C. for 60 minutes. Following incubation, the reaction volume was spotted onto DE81 filter-mats, washed 5 times for 5 minutes each in a 5% sodium phosphate buffer or 2×SSC. […] were washed 2 times for 1 minute each in distilled water, 2 times for 1 minute each in 70% ethanol, and then dried. Incorporated radioactivity (counts per minute, CPM) was quantified using standard liquid scintillation techniques.

Row | Compound | CC50 at 48 h [1] [µM] | TI (TC50/IC50) (HIV-1Ba-L [2]) | IC50 (HIV-1Ba-L [2]; Human immunodeficiency virus 1) [µM] | IC50 (HIV-1Ba-L [2]) [µM] | IC50 (HIV-1Ba-L [3]) [µM]
1 | CC1=C(c2nc(-c3ccc(C#N)cc3)cs2)C(c2ccncc2)NC(=O)N1 (centres unmarked) [Example 9] | ≥ 100 | C (C < 50.0 to 10.0) | 1 to 5 | – | –
2 | CC1=C(c2nc(-c3ccc(C#N)cc3C)cs2)C(c2cccnc2F)NC(=O)N1 (centres unmarked) [Example 82] | 50 to 100 | A (A = TI (TC50/IC50) ≧ 100.0) | < 1 | – | –
3 | CC1=C(c2nc(-c3ccc(C#N)cc3C)cs2)C(c2ccc(Br)nc2)NC(=O)N1 (centres unmarked) [Example 84] | < 50 | B (B < 100.0-50.0) | < 1 | – | –
4 | CC1=C(c2nc(-c3ccc(C#N)cc3)cs2)C(c2cncc(F)c2)NC(=O)N1 (centres unmarked) [Example 20] | ≥ 100 | A (A = TI (TC50/IC50) ≧ 100.0) | < 1 | – | –
5 | CC1=C(c2nc(-c3ccc(C#N)cc3)cs2)C(c2nccn2C)NC(=O)N1 (centres unmarked) [Example 16] | ≥ 100 | D (D < 10.0) | > 100 | – | –
6 | COc1ncc(C2NC(=O)NC(C)=C2c2nc(-c3ccc(C#N)cc3)cs2)cn1 (centres unmarked) [Example 31] | ≥ 100 | C (C < 50.0 to 10.0) | 1 to 5 | – | –
7 | CC1=C(c2nc(-c3ccc(C#N)cc3)cs2)C(Cc2ccc(C)cc2)NC(=O)N1 (centres unmarked) [Example 94] | 50 to 100 | C (C < 50.0 to 10.0) | 1 to 5 | – | –
8 | COc1ccc(C2NC(=O)NC(C)=C2c2nc(-c3ccc(C#N)cc3)cs2)cc1O (centres unmarked) [Example 72] | ≥ 100 | A (A = TI (TC50/IC50) ≧ 100.0) | < 1 | – | –
9 | CC1=C(c2nc(-c3ccc(C#N)cc3)cs2)C(c2cccnc2)NC(=O)N1 (centres unmarked) [Example 8] | ≥ 100 | C (C < 50.0 to 10.0) | 1 to 5 | – | –
10 | Maraviroc [reference compound] | – | – | – | 0.0006 | 0.009
11 | COc1cccc(C2NC(=O)NC(C)=C2c2nc(-c3ccc(C#N)cc3)cs2)c1 (centres unmarked) [Example 65] | ≥ 100 | C (C < 50.0 to 10.0) | 1 to 5 | – | –
12 | CC1=C(c2nc(-c3ccc(C#N)cc3)cs2)C(c2ccc(Cl)c(OC(F)(F)F)c2)NC(=O)N1 (centres unmarked) [Example 61] | ≥ 100 | D (D < 10.0) | 5 to 100 | – | –
13 | COc1ccc(-c2csc(C3=C(C)NC(=O)NC3c3cccc(C(F)(F)F)c3)n2)cc1 (centres unmarked) [Example 45] | ≥ 100 | D (D < 10.0) | > 100 | – | –
14 | CC1=C(c2nc(-c3ccc(C#N)cc3)cs2)C(c2cc(O)ccc2O)NC(=O)N1 (centres unmarked) [Example 78] | ≥ 100 | D (D < 10.0) | 5 to 100 | – | –
15 | CC1=C(c2nc(-c3cccc(C#N)c3)cs2)C(c2ccc(O)cc2)NC(=O)N1 (centres unmarked) [Example 67] | 50 to 100 | D (D < 10.0) | 5 to 100 | – | –
16 | CC1=C(c2nc(-c3ccc(C#N)cc3)cs2)C(c2cc3ccccc3nc2Cl)NC(=O)N1 (centres unmarked) [Example 5] | ≥ 100 | D (D < 10.0) | 5 to 100 | – | –
17 | CC1=C(c2nc(-c3ccc(C#N)cc3)cs2)C(c2ccc(F)cc2)NC(=O)N1 (centres unmarked) [Example 49] | ≥ 100 | C (C < 50.0 to 10.0) | 1 to 5 | – | –
18 | CC1=C(c2nc(-c3ccc(C)cc3)cs2)C(c2cccc(O)c2)NC(=O)N1 (centres unmarked) [Example 73] | 50 to 100 | D (D < 10.0) | 5 to 100 | – | –
19 | COc1ncccc1C1NC(=O)NC(C)=C1c1nc(-c2ccc(C#N)cc2)cs1 (centres unmarked) [Example 27] | ≥ 100 | C (C < 50.0 to 10.0) | 5 to 100 | – | –
